Key:
[1] = target: T1, Peroxisome proliferator-activated receptor gamma (Homo sapiens, UniProt P37231); assay: Transactivation activity at PPARgamma (unknown origin)
T1 sequence (P37231 whole entry): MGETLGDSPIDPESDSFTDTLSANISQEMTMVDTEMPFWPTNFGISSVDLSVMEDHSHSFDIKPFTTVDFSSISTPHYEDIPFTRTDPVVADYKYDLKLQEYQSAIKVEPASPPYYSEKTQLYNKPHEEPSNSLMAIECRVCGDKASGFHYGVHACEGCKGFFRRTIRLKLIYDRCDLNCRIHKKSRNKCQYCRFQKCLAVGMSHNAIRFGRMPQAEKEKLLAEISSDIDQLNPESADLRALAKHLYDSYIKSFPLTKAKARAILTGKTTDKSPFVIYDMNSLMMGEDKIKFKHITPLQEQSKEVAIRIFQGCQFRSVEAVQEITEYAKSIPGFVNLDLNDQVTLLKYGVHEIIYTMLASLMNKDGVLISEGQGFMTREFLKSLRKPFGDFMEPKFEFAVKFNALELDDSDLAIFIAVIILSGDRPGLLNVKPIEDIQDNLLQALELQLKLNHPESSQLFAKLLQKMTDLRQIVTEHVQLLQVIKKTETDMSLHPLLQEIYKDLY

[2] = target: T1, Peroxisome proliferator-activated receptor gamma; assay: Transactivation activity at Homo sapiens (human) PPARgamma

C/C(=N\OCCOc1ccc(CC2SC(=O)NC2=O)cc1)c1ccc(-c2ccccc2)cc1 (stereo not given) was tested, and the EC50 [1] was greater than 0.4 µM.
For CCOC(=O)CN1C(=O)SC(Cc2ccc(OCCBr)cc2)C1=O (stereo not given), the EC50 [1] was 12 µM.
With CCOC(=O)CN1C(=O)S/C(=C\c2ccc(C(F)(F)F)cc2)C1=O the EC50 [1] was 10 µM.
Molecule CCOC(=O)CN1C(=O)S/C(=C\c2cccc([N+](=O)[O-])c2)C1=O has an EC50 [1] of 11 µM.
Work on CCOC(=O)CN1C(=O)S/C(=C\c2ccc(C)cc2)C1=O yielded an EC50 [1] of 9 µM.
Work on CCOC(=O)CN1C(=O)S/C(=C\c2ccc(OC)cc2)C1=O yielded an EC50 [1] of 7 µM.
For CCOC(=O)CN1C(=O)S/C(=C\c2ccc(Cl)cc2)C1=O, the EC50 [1] was 8 µM.
Molecule CCOC(=O)CN1C(=O)SC(Cc2ccc(F)cc2)C1=O (stereo not given) has an EC50 [1] of 10 µM.
With CCOC(=O)CN1C(=O)SC(Cc2ccc(C(F)(F)F)cc2)C1=O (stereo not given) the EC50 [1] was 9 µM.
CCOC(=O)CN1C(=O)SC(Cc2ccc(N)cc2)C1=O (stereo not given) showed an EC50 [1] of 8 µM.
With COC(=O)CN1C(=O)S/C(=C\c2ccc(O)cc2)C1=O the EC50 [1] was 10 µM.
In the case of COC(=O)CN1C(=O)SC(Cc2ccc(O)cc2)C1=O (stereo not given), the EC50 [1] is reported as 9 µM.
In the case of CCOC(=O)CN1C(=O)S/C(=C\c2ccc(OCCBr)cc2)C1=O, the EC50 [1] is reported as 11 µM.
Work on CCCc1cc(Oc2ccccc2)ccc1OCCCCOc1ccc(C2SC(=O)NC2=O)cc1 (stereo not given) yielded an EC50 [2] of 1 µM.
Molecule O=C1NC(=O)C(Cc2ccc3c(c2)CC[C@H](Cc2ccccc2)O3)S1 (stereo not given in full) [ENGLITAZONE] has an EC50 [2] of 1 µM.
